Data taken from patent US7858394B2, “Test methods for determining the intracellular concentration of cyclic nucleotides” (Axxam SpA, priority 2003, dated 2010).

Experiments:
[1] = system: soluble guanylate cyclase; test: Luminescence measurement of intracellular cGMP in a cell line expressing the CNG2 channel, a calcium-sensitive photoprotein and soluble guanylate cyclase; assay type: cell-based; conditions: dose-dependent; RLUs measured for 1 min; FIG. 2
Description: (§1) The cells are seeded for the measurements on 384-well microtitre plates (MTPs) at 1500 cells per well and on 1536-well MTPs at 250 cells per well. After 1-2 days of growth at 37° C./5% CO2, the cell culture medium (DMEM/F12 containing 10% foetal calf serum) is removed and the cells are charged with coelenterazine (0.8 μg/ml) in calcium-free Tyrode's at 37° C./5% CO2 for 3 h. Subsequently, test substances and appropriate control substances (e.g. SIN-1 or isoprenaline) are added in calcium-free Tyrode's and incubated on the cells for 5-10 min. The extra measurement is then carried out in a light-tight box by adding calcium-containing Tyrode's via a comb (final calcium concentration: 3 mM), with the aid of a charge-coupled device camera.

Description for β-adrenergic receptor: as §1
To measure the effects of substances directly, the cells are charged with coelenterazine in calcium-containing Tyrode's. The substances are then added within the light-tight box and measurement commences immediately with addition of the substances (FIG. 5).
If the cells are charged with coelenterazine in calcium-containing Tyrode's, the agonist isoprenaline may also be added directly to the cells within the light-tight box.

SMILES	luminescence signal (intracellular cGMP concentration) after activation of soluble guanylate cyclase [1]	time until luminescence signal is observed after addition of agonist (β-adrenergic receptor; cells charged with coelenterazine in calcium-containing Tyrode's, agonist 10^-6 M added directly within the light-tight box, FIG. 5)	luminescence signal (intracellular cAMP concentration) after activation of the β-adrenergic receptor (β-adrenergic receptor; dose-dependent, 10 min incubation in calcium-free Tyrode's, measurement started by adding calcium, 0, 10^-7 M, 10^-6 M, FIG. 4)
[NH-]c1c[n+](N2CCOCC2)no1 [SIN-1]	enhanced luminescence signal		
CC(C)NCC(O)c1ccc(O)c(O)c1 (stereo not drawn) [isoprenaline]		within a few seconds	enhanced lumiscence signal
